Source: patent US20110065756A1, “METHODS AND COMPOSITIONS FOR TREATMENT OF OBESITY-RELATED DISEASES” (priority 2009, published 2011)

How the values were obtained:
[1] = clinical use; cited from earlier work
[2] = Rosiglitazone treatment of diet-induced obese mice: body weight, fasting plasma glucose and insulin, IPGTT; type: in vivo; conditions: obese C57BL/6J mice, 10 mg/kg/day by gavage, vs vehicle
Method: Ten adult (6 week-old) male C57BL/6J mice were purchased from the Jackson Laboratory. Mice were housed in a pathogen-free barrier facility (12 h light/12 h dark cycle). […] Mice were weighed every 4 weeks. After 12 weeks blood was collected after a 6 hour fast and plasma glucose levels were analyzed using the Accu-Check glucose meter. Subsequently, mice were treated with rosiglitazone (10 mg/kg/day in 1% carboxymethylcellulose in water) or vehicle by gavaging for 10 days. On day 10 the animals were subjected to an intraperitoneal glucose tolerance test (IPGTT) after a 16 hr overnight fast. Plasma glucose levels were determined at 0, 15, 30, 60 and 120 min using an Accu-Check glucose meter; at each time point 10 μl blood was collected in EDTA-coated tubes (Microvette CB300, Sarstedt, Newton, N.C.) for determination of insulin levels using an ELISA specific for mouse insulin (Alpco Diagnostics, Salem, N.H.). After the IPGTT, mice received a final treatment with rosiglitazone or vehicle (day 11) and were euthanized the next day (day 12) after a 6 hour fast under anaesthesia with isoflurane (Baxter). The epididymal fat pads, subcutaneous fat pads, liver and kidneys were harvested and stored at −80° C. for further analysis.
Results are expressed as mean±SEM. […]

[3] = RECORD, cited from earlier work

Row | SMILES | incidence of hepatitis and potential liver failure [1] | body weight [2] | cardiovascular death, myocardial infarction, or stroke ([3]; 5-7 years follow-up, vs active control group) | upper and distal lower limb fracture rates ([3]; particularly in women) | heart failure that caused either hospital admission or death ([3]; rosiglitazone group (29 in active control group)) [patients] | risk difference per 1000 person-years for heart failure ([3]; vs active control, interval 1.1-4.1) | hazard ratio [HR] for heart failure ([3]; vs active control, interval 1.35-3.27)
1 | CCc1ccc(CCOc2ccc(CC3SC(=O)NC3=O)cc2)nc1 (centres unmarked) [pioglitazone] | have not shown higher incidence |  |  |  |  |  | 
2 | CN(CCOc1ccc(CC2SC(=O)NC2=O)cc1)c1ccccn1 (centres unmarked) [rosiglitazone] | have not shown higher incidence | did not influence weight | No difference was observed | increased | 61 | 2.6 | 2.10
